In patent US20150374709A1, “TETRA-SUBSTITUTED NDGA DERIVATIVES VIA ETHER BONDS AND CARBAMATE BONDS AND THEIR SYNTHESIS AND PHARMACEUTICAL USE” (ERIMOS PHARMACEUTICALS LLC, priority 2006, published 2015):
pEC50, pIC50: −log10 of the molar value. “And” between values parts separate entries of the source, which are not always exact repeats. Identical values can stand only once. Counter-ions that a name gives are not always drawn. Like-named read-outs stand apart in the source and are kept apart here.

Legend:
[1] = tested on: MCP-1; experiment: MCP-1 protein production in TNF-α-treated primary human keratinocytes; type: cell-based
Protocol: Anti-inflammatory activity was determined based on the effect of tested compounds on primary human keratinocytes (PHKs). PHKs play an important role in inflammatory processes, synthesizing a number of cytokines, adhesion molecules and growth factors. Studies were conducted to determine whether tested compounds could inhibit keratinocytes to prevent or reduce production of interferon gamma (IFN-γ), interleukin-8 (IL-8), tumor necrosis factor alpha (TNF-α), granulocyte/macrophage colony-stimulating factor (GM-CSF), intercellular adhesion molecule-1 (ICAM-1, also known as CD54) and monocyte chemotactic protein-1 (MCP-1). PHKs are first treated with TNF-α to induce a pro-inflammatory state and release of pro-inflammatory cytokines. Specific cytokines are then assayed following manufacturer's instructions using R&D Systems. Inc.'s protein assays (Quantikine ELISA kits; Catalog Nos. DCP00 for MCP-1 kit, DCM00 for GM-CSF kit, and DIF50 for IFN-γ).
Anti-inflammatory activity of several of the compounds of the previously described working examples was determined based on the effect of tested compounds on primary human keratinocytes (PHKs) as described above and following the manufacturer's instructions for the various kits used in the studies. While these studies more typically are used mostly for anti-inflammatory investigations, they can also apply to vascular diseases, since the results in keratinocytes may be extrapolated to vascular endothelium.
Only MCP-1 data with PHKs is dose-dependent, so an IC50 for MCP-1 can be calculated, but not for the other cytokines.

[2] = tested on: A549 (lung carcinoma); experiment: MTS cell viability assay, A549; type: cell-based; conditions: Homo sapiens
Description: (§1) Studies performed regarding cytotoxicity included the well-known MTS, Trypan Blue and MTT protocols. The MTS studies were done using the CellTiter 96®AQueous One Solution Cell Proliferation Assay (Promega Corporation, Madison, Wis. USA). Metabolically active, namely viable, cells turn MTS, a tetrazolium compound (3-(4,5-dimethylthiazol-2-yl)-5-(3-carboxymethoxyphenyl)-2-(4-sulfophenyl)-2H-tetrazolium, inner salt) into colored formazan, which is soluble in tissue culture medium. The measurement of the absorbance of the formazan is read at 490 nm. The ready to use reagent is added directly to the cells in media in 96-well plates, incubated 1-4 hours and the results are recorded by the plate reader. The IC50 is estimated by graphing the gathered data. The IC50 is the concentration of the tested material that inhibits 50% of growth or viability of the tested material compared to a control.
(§2) Three cell lines obtained from ATCC and maintained as directed by ATCC were tested: HeLa (cervical adenocarcinoma), A549 (lung carcinoma), and COS-7 (SV40 transformed monkey kidney). Studies of these cell lines are considered to be indicative of the effect of tested substances on mammalian, including human, diseases.
(§3) All compounds were dissolved in DMSO and DMSO is used as the placebo. The samples were first dissolved into 10 mM dilutions in DMSO and then diluted further to 5, 1, 0.5, 0.1, 0.05, and 0.01 mM solutions. These solutions were added to the media at a 1% concentration (1 μl to 100 μl media) to treat the cells with 100, 50, 10, 5, 1, 0.5, and 0.1 μM of the compound. […] Solutions were checked before use for precipitation, especially the 10 mM solutions. If there was precipitation, they were warmed 65° C. and added to warmed media.
(§4) Wells on a 96-well plate were seeded with 1.5-8×10^4 cells in 100 μl media and incubated overnight. The outside wells of the plate were filled with 200 μl sterile, deionized (DI) water to curb media evaporation. After 24 hours, test chemicals were prepared in media at a concentration of 1% media volume. The test sample media were added, mixing with pipette before adding 100 μl per well. Media was added to the “Media Only” wells. The well plate and its contents were incubated for 24-72 hours, depending on the study conducted. On the thy of the MTS assay, the MTS reagent was removed from the refrigerator and brought to room temperature. Using the multichannel pipette, 20 μl of the MTS reagent was added to each well and incubated for one to four hours. The plate was read at 490 nm with a reference wavelength of 690 nm after one hour in the incubator thereafter until the blank wells were at about 0.2 OD. The results were then scanned into a Microsoft® Excel® template designed to perform all necessary calculations whim data are entered. The data were checked for statistical errors; data points that are within 10% of the mean of the data points for that group were included. The average of the blanks (“Media Only”) were subtracted and the data were inserted into a chart that represents growth response, treated/untreated.

[3] = tested on: TAT-mediated transactivation of HIV transcription (HIV-1 LTR promoter); experiment: SEAP assay of TAT-mediated transactivation (antiviral activity); type: cell-based, human immunodeficiency virus (HIV); conditions: for pEC50: Human immunodeficiency virus 1, COS-7, 48 h, read-out: SEAP EC50
Protocol: Antiviral activity is determined using a SEAP (SEcreted Alkaline Phosphatase) assay, in which cells are co-transfected with SEAP and TAT plasmids. TAT is a transactivator, human immunodeficiency virus (HIV) gene expression and is one of the two or more necessary viral regulatory factors (TAT and REV) for HIV gene expression. TAT acts iv binding to the TAR RNA element and activating transcription from the long terminal repeat (LTR) promoter. […] Previous studies have shown that TAT mediates reduction of antibody-dependent T cell proliferation, contributing substantially to the failure of the immune response. TAT also directly stimulates Kaposi's cell growth.
Since TAT has no apparent cellular homologs, this strong positive regulator has become an attractive target for the development of anti-AIDS drugs. In contrast to currently available HIV reverse transcriptase inhibitors (AZT, DDI) or potential protease inhibitors that prevent new rounds of infection, an inhibitor which suppresses viral gene TAT regulated expression of integrated proviral DNA will arrest the virus at an early stage (Hsu et al., Science 254:1799-1802, 1991). Efforts aimed at the elucidation of factors which control gene expression at transcriptional and post-transcriptional levels in host eukaryotes have recently made possible quantitative assessment of TAT function (Sim, Ann. N.Y. Acad. Sci. 616: 64-70, 1990). To screen for inhibitors for TAT regulated transactivation (TAT-TRS), the SEAP reporter gene is put under the control of HIV-1 LTR promoter in the plasmid pBC12/HIV/SEAP. The TAT-coded activity is supplied by a second plasmid construct pBC12/CMV/t2. Transient co-transfection of COS-7 cells with these two plasmids leads to secretion of alkaline phosphatase into the culture medium which is analyzed by a simple colorimetric assay (Berger et al., Gene 66: 1-10, 1988). […]
In the SEAP assay, an inhibitor should cause reduction of SEAP reporter gene expression via transactivation of the HIV-1 LTR promoter by TAT protein (TAT-TRS). […] SEAP is detected colorimetrically by the para-nitrophenyl phosphate substrate at 405 nm. […] The cells are analyzed by the MTT assay to compare cytotoxicity to SEAP inhibition. […]
COS-7 (green monkey kidney) cells were co-transfected using Fugene 6 reagent (Roche Applied Science, Cat. No. 11815091001, Indianapolis, Ind., USA) with two plasmids: pHIVSEAP (SEAP expression vector under the control of the HIV LTR promoter) and pCTAT (HIV TAT transcription factor expression vector under the control of a CMV (cytomegalovirus) promoter). After test compound treatment for 48 hours, samples were analyzed for […] at 405 nm after addition of the p-nitrophenyl phosphate substrate. The percentage of SEAP activity inhibition was calculated in relation to the placebo control.

[4] = tested on: HeLa (cervical adenocarcinoma); experiment: MTS cell viability assay, HeLa; type: cell-based; conditions: read-out: HeLa IC50
Description: as §1, §2, §3, §4

[5] = tested on: VEGF; experiment: ELISA VEGF assay (DFO-treated cells); type: cell-based, Human; conditions: VEGF released into media by DFO-treated cells, normalized to cell count; read-out: VEGF IC50
Description: ELISA (Enzyme-Linked ImmunoSorbent Assay) VEGF studies were done following manufacturer's instructions using the Endogen® Human VEGF ELISA kit, Catalog No. […] (Pierce Biotechnology, Inc., Rockford, Ill. USA). Hypoxic conditions are created for the cells by treating them with desferrioxamine (DFO), which chelates iron and causes the cells to secrete VEGF into the media. The supernatant (media) was removed and frozen for testing, and the cells were counted with the Trypan Blue assay so that the results can be normalized to cell count. The VEGF is measured with a sandwich ELISA that captures the protein in media on an antibody-coated microplate, and then uses a biotinylated antibody reagent to detect the protein. Results from a standard curve enable the user to quantify the amount of protein in each sample.

[6] = tested on: apoptosis of cells based on DNA fragmentation; experiment: TiterTACS DNA fragmentation apoptosis assay; type: cell-based; conditions: TiterTACS apoptosis detection
Protocol: Antiproliferative activity is determined using the TiterTACS® Apoptosis Detection Kit (R&D Systems Inc., Minneapolis, Minn. USA) relating to apoptosis of cells based on DNA fragmentation, and by the ELISA VEGF ([…]) and survivin assays.
In the DNA fragmentation assay, in situ detection of apoptosis is specifically achieved with TiterTACS® 96-well Apoptosis Detection kit, Catalog No. TA600 (R&D Systems, Inc.). The TiterTACS® assay provides quantification of apoptosis in cultured cells without direct counting of labeled cells using colorimetric detection. Cells are treated with the test compounds, left untreated as experimental negative controls, or treated with TACS nuclease as positive controls. TACS nuclease allows positive controls to be generated for each experimental system: a brief treatment of cells with the TACS nuclease prior to labeling generates DNA breaks in every cell, providing an appropriate positive control specific for the system under study. The TdT enzyme that catalyzes the addition of dNTPs to DNA fragments allows for colorimetric detection of at 450 nm by using a streptavidin-HRP solution followed by the TACS-Sapphire substrate. A high absorbance at 450 nm is indicative of apoptosis in the cells. Treated cells are compared to untreated cells and to nuclease-cleaved cells to assess the extent of apoptosis.

[7] = tested on: COS-7 cells; experiment: MTT cytotoxicity assay in COS-7 cells (run with SEAP); type: cell-based, green monkey; conditions: COS-7 test cells of the SEAP assay
Protocol: The MTT assay is a colorimetric method for determining the number of viable cells. Metabolically active cells turn the MIT reagent, (3-(4,5-dimethylthiazol-2-yl)-2,5-diphenyltetrazolium bromide, into purple-colored formazan crystals that are solubilized in dimethyl sulfoxide (DMSO). The MTT reagent is added to MTT (colorless) media. The media is added to the cells and they are incubated for 4 hours. DMSO is added to the cells and mixed. The colored solutions are then read at 540 nm and corrected at 630 nm. The IC50 is estimated by graphing the gathered data.
The cells are analyzed by the MTT assay to compare cytotoxicity to SEAP inhibition. The goal is for the drug to inhibit SEAP without being too toxic.
The MTT assay measures cellular-proliferation and is used to verify that the levels of SEAP activity are not solely due to cytotoxicity. These assays was used in screening for potential drug compound leads as antiviral agents, and particularly, anti-HIV candidates.

[8] = read-out: MCP-1 IC50; TNF-α-treated PHK
[9] = TNF-α-treated PHK; read-out: MCP-1 IC50

C[C@H](Cc1ccc(OCCO)c(OCCO)c1)[C@@H](C)Cc1ccc(OCCO)c(OCCO)c1 [Compound I, 1,4-bis{3,4-bis(2-hydroxyethoxy)phenyl}-2,3-dimethyl-(2R,3S)-butane]
pIC50 [1, 8]: 4.60
pIC50 ([2]; A549, read-out: A549 IC50): 4.15 to 4.19
pEC50 [3]: 4.10 to 4.22
pIC50 ([4]; Homo sapiens, HeLa): 4.52 to 4.70

C[C@H](Cc1ccc(OCCCN2CCCCC2)c(OCCCN2CCCCC2)c1)[C@@H](C)Cc1ccc(OCCCN2CCCCC2)c(OCCCN2CCCCC2)c1.Cl.Cl.Cl.Cl [Compound B, 1,4-bis{3,4-bis[3-(piperidin-1-yl)propoxy]phenyl}-2,3-dimethyl-(2R,3S)-butane tetrakis-hydrochloride salt]
pIC50 [1, 9]: 5.70
pIC50 [5]: ~5.70 and 5.70
pIC50 ([4]; MTS assay): 5.30 to 6.00
DNA fragmentation [6]: Negative

Cc1nc(COc2ccc(C[C@@H](C)[C@@H](C)Cc3ccc(OCc4csc(C)n4)c(OCc4csc(C)n4)c3)cc2OCc2csc(C)n2)cs1 [Compound F, 1,4-bis{3,4-bis(2-methyl-thiazol-4-yl-methoxy)phenyl}-2,3-dimethyl-(2R,3S)-butane tetrakis-hydrochloride salt]
pIC50 [1, 8]: < 4.00
pIC50 ([2]; A549, read-out: A549 IC50): < 4.00
SEAP EC50 ([3]; COS-7 cells co-transfected with pHIVSEAP and pCTAT, 48 hours treatment): Variable
pIC50 ([4]; Homo sapiens, HeLa): < 4.00
COS-7 IC50 [7]: Variable

C[C@H](Cc1ccc(OCCOCCO)c(OCCOCCO)c1)[C@@H](C)Cc1ccc(OCCOCCO)c(OCCOCCO)c1 [Compound J, 1,4-bis{3,4-bis[2-(2-hydroxyethoxy)ethoxyl]phenyl}-2,3-dimethyl-(2R,3S)-butane]
pIC50 [1, 9]: 4.15
pIC50 ([2]; A549, MTS assay, read-out: A549 IC50): 4.05 to 4.10
pEC50 [3]: 4.05 to 4.10
pIC50 ([4]; Homo sapiens, HeLa, MTS assay): < 4.00
pIC50 ([7]; Chlorocebus sabaeus): 4.05 to 4.10
